In PubChem BioAssay (NCI):
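Exposure lasted 48 hours, with cells grown in 96-well plates and compounds tested at five concentrations. GI50: concentration for 50% inhibition of growth. At the TGI there is no net growth.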

Legend:
Assay in all cases: inhibition of tumour cell growth, NCI panel, 48 h
SK-OV-3 ovarian = tested on: SK-OV-3 ovarian
SK-MEL-28 melanoma = tested on: SK-MEL-28 melanoma
MDA-MB-231 breast = tested on: MDA-MB-231 breast
DU-145 prostate = tested on: DU-145 prostate
LOX IMVI melanoma = tested on: LOX IMVI melanoma
RXF 393 renal = tested on: RXF 393 renal
IGROV1 ovarian = tested on: IGROV1 ovarian
A549 NSCLC = tested on: A549 NSCLC
786-0 renal = tested on: 786-0 renal
HCC-2998 colon = tested on: HCC-2998 colon
SF-539 CNS = tested on: SF-539 CNS
OVCAR-4 ovarian = tested on: OVCAR-4 ovarian
HT29 colon = tested on: HT29 colon
HOP-92 NSCLC = tested on: HOP-92 NSCLC
OVCAR-3 ovarian = tested on: OVCAR-3 ovarian
MALME-3M melanoma = tested on: MALME-3M melanoma
U251 CNS = tested on: U251 CNS
SN12C renal = tested on: SN12C renal
CCRF-CEM leukemia = tested on: CCRF-CEM leukemia
ACHN renal = tested on: ACHN renal
NCI-H460 lung = tested on: NCI-H460 lung
BT-549 breast = tested on: BT-549 breast
M14 melanoma = tested on: M14 melanoma
UO-31 renal = tested on: UO-31 renal
UACC-257 melanoma = tested on: UACC-257 melanoma
CAKI-1 renal = tested on: CAKI-1 renal
HCT-15 colon = tested on: HCT-15 colon
HL-60(TB) leukemia = tested on: HL-60(TB) leukemia
RPMI-8226 leukemia = tested on: RPMI-8226 leukemia
UACC-62 melanoma = tested on: UACC-62 melanoma
MCF7 breast = tested on: MCF7 breast
OVCAR-8 ovarian = tested on: OVCAR-8 ovarian
MDA-MB-435 = tested on: MDA-MB-435
NCI/ADR-RES ovarian = tested on: NCI/ADR-RES ovarian
SF-268 CNS = tested on: SF-268 CNS
KM12 colon = tested on: KM12 colon
HS 578T breast = tested on: HS 578T breast
A498 renal = tested on: A498 renal
COLO 205 colon = tested on: COLO 205 colon
SNB-75 CNS = tested on: SNB-75 CNS
SW-620 colon = tested on: SW-620 colon
SK-MEL-2 melanoma = tested on: SK-MEL-2 melanoma
SF-295 CNS = tested on: SF-295 CNS
SK-MEL-5 melanoma = tested on: SK-MEL-5 melanoma
NCI-H522 lung = tested on: NCI-H522 lung
MOLT-4 leukemia = tested on: MOLT-4 leukemia
OVCAR-5 ovarian = tested on: OVCAR-5 ovarian
PC-3 prostate = tested on: PC-3 prostate
NCI-H226 lung = tested on: NCI-H226 lung
T-47D breast = tested on: T-47D breast
HCT-116 colon = tested on: HCT-116 colon
SR leukemia = tested on: SR leukemia
SNB-19 CNS = tested on: SNB-19 CNS
HOP-62 NSCLC = tested on: HOP-62 NSCLC

COc1cccc(-c2ccc3c(c2)C2CCN(Cc4ccccc4)C3C2)c1 (stereo not drawn)
GI50 (SK-OV-3 ovarian): 14.8 µM | TGI (SK-OV-3 ovarian): 48.8 µM | GI50 (SK-MEL-28 melanoma): 13.4 µM | TGI (SK-MEL-28 melanoma): 65.9 µM | GI50 (MDA-MB-231 breast): 5.61 µM | TGI (MDA-MB-231 breast): 19 µM | GI50 (DU-145 prostate): 16.4 µM | TGI (DU-145 prostate): 43.9 µM | GI50 (LOX IMVI melanoma): 10.2 µM | TGI (LOX IMVI melanoma): 26.8 µM | GI50 (RXF 393 renal): 10.1 µM | TGI (RXF 393 renal): 24.6 µM | GI50 (IGROV1 ovarian): 8.99 µM | TGI (IGROV1 ovarian): 76.6 µM | GI50 (A549 NSCLC): 7.72 µM | TGI (A549 NSCLC): 31.8 µM | GI50 (786-0 renal): 13.9 µM | TGI (786-0 renal): 36.1 µM | GI50 (HCC-2998 colon): 13.6 µM | TGI (HCC-2998 colon): 33.5 µM | GI50 (SF-539 CNS): 10.3 µM | TGI (SF-539 CNS): 23 µM | GI50 (OVCAR-4 ovarian): 5.71 µM | TGI (OVCAR-4 ovarian): 58.2 µM | GI50 (HT29 colon): 3.24 µM | TGI (HT29 colon): 12.2 µM | GI50 (HOP-92 NSCLC): 3.72 µM | TGI (HOP-92 NSCLC): 20.2 µM | GI50 (OVCAR-3 ovarian): 4.49 µM | TGI (OVCAR-3 ovarian): 17 µM | GI50 (MALME-3M melanoma): 13.4 µM | TGI (MALME-3M melanoma): 30.4 µM | GI50 (U251 CNS): 7.63 µM | TGI (U251 CNS): 22 µM | GI50 (SN12C renal): 11.2 µM | TGI (SN12C renal): 30.3 µM | GI50 (CCRF-CEM leukemia): 9.67 µM | TGI (CCRF-CEM leukemia): 56.1 µM | GI50 (ACHN renal): 11.9 µM | TGI (ACHN renal): 38.1 µM | GI50 (NCI-H460 lung): 4.13 µM | TGI (NCI-H460 lung): 15.7 µM | GI50 (BT-549 breast): 6.12 µM | TGI (BT-549 breast): 21.1 µM | GI50 (M14 melanoma): 5.78 µM | TGI (M14 melanoma): 24.8 µM | GI50 (UO-31 renal): 6.79 µM | TGI (UO-31 renal): 21.6 µM | GI50 (UACC-257 melanoma): 11.2 µM | TGI (UACC-257 melanoma): 29.1 µM | GI50 (CAKI-1 renal): 10.8 µM | TGI (CAKI-1 renal): 40.1 µM | GI50 (HCT-15 colon): 4.86 µM | TGI (HCT-15 colon): 19.7 µM | GI50 (HL-60(TB) leukemia): 5.71 µM | TGI (HL-60(TB) leukemia): 21 µM | GI50 (RPMI-8226 leukemia): 4.93 µM | TGI (RPMI-8226 leukemia): 23.6 µM | GI50 (UACC-62 melanoma): 8.48 µM | TGI (UACC-62 melanoma): 22 µM | GI50 (MCF7 breast): 4.34 µM | TGI (MCF7 breast): 19.5 µM | GI50 (OVCAR-8 ovarian): 11.2 µM | TGI (OVCAR-8 ovarian): 32.5 µM | GI50 (MDA-MB-435): 2.43 µM | TGI (MDA-MB-435): 7.29 µM | GI50 (NCI/ADR-RES ovarian): 8.94 µM | TGI (NCI/ADR-RES ovarian): 32.5 µM | GI50 (SF-268 CNS): 12.3 µM | TGI (SF-268 CNS): 34.4 µM | GI50 (KM12 colon): 5.14 µM | TGI (KM12 colon): 21.6 µM | GI50 (HS 578T breast): 8.64 µM | TGI (HS 578T breast): 31 µM | GI50 (A498 renal): 3.77 µM | TGI (A498 renal): 17.6 µM | GI50 (COLO 205 colon): 10 µM | TGI (COLO 205 colon): 27.8 µM | GI50 (SNB-75 CNS): 6.69 µM | TGI (SNB-75 CNS): 27.2 µM | GI50 (SW-620 colon): 4.59 µM | TGI (SW-620 colon): 20.3 µM | GI50 (SK-MEL-2 melanoma): 5.04 µM | TGI (SK-MEL-2 melanoma): 18 µM | GI50 (SF-295 CNS): 4.08 µM | TGI (SF-295 CNS): 20.9 µM | GI50 (SK-MEL-5 melanoma): 3.51 µM | TGI (SK-MEL-5 melanoma): 14.7 µM | GI50 (NCI-H522 lung): 4.54 µM | TGI (NCI-H522 lung): 20.4 µM | GI50 (MOLT-4 leukemia): 7.17 µM | TGI (MOLT-4 leukemia): 40.5 µM | GI50 (OVCAR-5 ovarian): 11.8 µM | TGI (OVCAR-5 ovarian): 29 µM | GI50 (PC-3 prostate): 6.99 µM | TGI (PC-3 prostate): 65.4 µM | GI50 (NCI-H226 lung): 11.1 µM | TGI (NCI-H226 lung): 30.4 µM | GI50 (T-47D breast): 5.19 µM | TGI (T-47D breast): 38.5 µM | GI50 (HCT-116 colon): 4.8 µM | TGI (HCT-116 colon): 23.6 µM | GI50 (SR leukemia): 3.95 µM | TGI (SR leukemia): 13.8 µM | GI50 (SNB-19 CNS): 12.9 µM | TGI (SNB-19 CNS): 30.5 µM | GI50 (HOP-62 NSCLC): 12.1 µM | TGI (HOP-62 NSCLC): 35.6 µM
